Measurements from US20260263485A1, “AMINOSTEROL COMPOUNDS, AMINOSTEROL-CYCLODEXTRIN FORMULATIONS, AND METHODS OF USING THE SAME” (Enterin, Inc., priority 2022, published 2026).
“And” between values parts separate entries of the source, which are not always exact repeats. Equal entries are not always repeated. Where two headings read alike, the source gives them in different places.

What was measured:
[1] = Identification of metabolites of ENT-03S in rat plasma and urine samples (UPLC-MS/MS); format: in vivo
Experimental: An equal number of rat urine (50 μL) were taken from different animals at various time points following administration of ENT-03S. For plasma samples, the Hamilton pooling method was used.
Study design: An equal number of rat urine (50 μL) samples were taken from different animals at various time points from study No.: PH-DMPK-ETR-21-001 following administration of ENT-03S. For plasma samples, the Hamilton pooling method was used.
The samples were then analysed using UPLC-MS/MS.
Compound dependent parameters were optimized by ENT-03S.

[2] = Plasma pharmacokinetics of ENT-03S cyclodextrin formulation after subcutaneous injection; format: in vivo, rat; details: 20% beta-cyclodextrin formulation, male SD rats
Experimental: In this example, ENT-03S was formulated with unmodified beta-cyclodextrin at a concentration of 25 mg/ml ENT-03, and 20% beta-cyclodextrin, pH 7.5, buffered with phosphate.
Male Sprague-Dawley rats were administered the ENT-03-cyclodextrin formulation subcutaneous at a dose of 10 mg/kg. Blood samples were drawn from the tail vein at various times, the concentrations of ENT-03 determined, and PK parameters determined.

[3] = SC Dose 10 mg/kg, plasma, individual rats, 10 mg/kg

## C[C@H](CCC[C@H](C)C(=O)O)[C@H]1CCC2C3C(CC[C@@]21C)[C@@]1(C)CC[C@H](NCCCNCCCCNCCCN)C[C@@H]1C[C@H]3O (stereo partly drawn) [ENT-03S, (2S,6R)-6-((3S,5R,7R,10S,13R,17R)-3-((3-((4-((3-aminopropyl)amino)butyl)amino)propyl)amino)-7-hydroxy-10,13-dimethylhexadecahydro-1 H-cyclopenta[a]phenanthren-17-yl)-2-methylheptanoic acid]
[1]; pooled male SD rat plasma 0.25-24 h after 10 mg/kg ENT-03S SC, relative XIC peak area
  Metabolite peak area percentages Rat Plasma Male: 91.29%
[1]; pooled male SD rat plasma after 10 mg/kg ENT-03S SC, XIC peak area
  Metabolite peak area Rat Plasma Male: 6.03E+08
[1]; pooled male SD rat urine 0-24 h after 10 mg/kg ENT-03S SC, relative XIC peak area, “—”: not observed
  Metabolite peak area percentages Rat Urine Male: 71.94%
[1]; pooled male SD rat urine after 10 mg/kg ENT-03S SC, XIC peak area, “—”: not observed
  Metabolite peak area Rat Urine Male: 1.62E+06
[2]; 10 mg/kg SC, 0.25 h, individual rats, 10 mg/kg
  Concentration (ng/ml) Rat 1-3: 22000 ng/mL and 20800 ng/mL
[2]; 10 mg/kg SC, 0.5 h, individual rats, 10 mg/kg
  Concentration (ng/ml) Rat 1-3: 27100 ng/mL and 30200 ng/mL
[2]; 10 mg/kg SC, 1 h, individual rats, 10 mg/kg
  Concentration (ng/ml) Rat 1-3: 31700 ng/mL and 33000 ng/mL
[2]; 10 mg/kg SC, 2 h, individual rats, 10 mg/kg
  Concentration (ng/ml) Rat 1-3: 32700 ng/mL and 33300 ng/mL
[2]; 10 mg/kg SC, 4 h, individual rats, 10 mg/kg
  Concentration (ng/ml) Rat 1-3: 29600 ng/mL and 25400 ng/mL
[2]; 10 mg/kg SC, 8 h, individual rats, 10 mg/kg
  Concentration (ng/ml) Rat 1-3: 25000 ng/mL and 23000 ng/mL
[2]; 10 mg/kg SC, 24 h, individual rats, 10 mg/kg
  Concentration (ng/ml) Rat 1-3: 14100 ng/mL and 12600 ng/mL
[2]; 10 mg/kg SC, 48 h, individual rats, 10 mg/kg
  Concentration (ng/ml) Rat 1-3: 7700 ng/mL and 5620 ng/mL
[2]; 10 mg/kg SC, 72 h, individual rats, 10 mg/kg
  Concentration (ng/ml) Rat 1-3: 1850 ng/mL and 4200 ng/mL and 2440 ng/mL
[2]; [3]
  AUC_% Extrap_obs: 6.74% and 15.0% and 8.08%
  AUClast: 944.488 µg·h/mL and 811.185 µg·h/mL
  AUClast/D: 71600 kg·ng·h/mL/mg and 94400 kg·ng·h/mL/mg and 81100 kg·ng·h/mL/mg
  AUClnf: 1110.949 µg·h/mL and 882.526 µg·h/mL
  Cmax: 32700 ng/mL and 33300 ng/mL
  MRTlnf_obs: 24.3 h and 36.3 h and 27.2 h
  T1/2: 27.5 h and 20.3 h
[2]; SC Dose 10 mg/kg, plasma, mean
  AUC_% Extrap_obs Mean: 9.9%
  AUClast/D Mean: 82400 kg·ng·h/mL/mg
  MRTlnf_obs Mean: 29.3 h
[2]; Sprague-Dawley, rat, SC Dose 10 mg/kg, plasma, individual rats, read-out: Tmax
  Tmax: 2 h
[2]; male, Sprague-Dawley, rat, plasma, sc, 10 mg/kg, 10 mg/kg SC, 0.25 h, individual rats, read-out: Concentration (ng/ml) Rat 1-3
  concentration at 0.25 h: 23100 ng/mL
[2]; male, Sprague-Dawley, rat, plasma, sc, 10 mg/kg, 10 mg/kg SC, 0.25 h, mean, read-out: Concentration Mean
  concentration at 0.25 h: 22000 ng/mL
[2]; male, Sprague-Dawley, rat, plasma, sc, 10 mg/kg, 10 mg/kg SC, 0.5 h, individual rats, read-out: Concentration (ng/ml) Rat 1-3
  concentration at 0.5 h: 25700 ng/mL
[2]; male, Sprague-Dawley, rat, plasma, sc, 10 mg/kg, 10 mg/kg SC, 0.5 h, mean, read-out: Concentration Mean
  concentration at 0.5 h: 27700 ng/mL
[2]; male, Sprague-Dawley, rat, plasma, sc, 10 mg/kg, 10 mg/kg SC, 1 h, individual rats, read-out: Concentration (ng/ml) Rat 1-3
  concentration at 1 h: 30700 ng/mL
[2]; male, Sprague-Dawley, rat, plasma, sc, 10 mg/kg, 10 mg/kg SC, 1 h, mean, read-out: Concentration Mean
  concentration at 1 h: 31800 ng/mL
[2]; male, Sprague-Dawley, rat, plasma, sc, 10 mg/kg, 10 mg/kg SC, 2 h, individual rats, read-out: Concentration (ng/ml) Rat 1-3
  concentration at 2 h: 31300 ng/mL
[2]; male, Sprague-Dawley, rat, plasma, sc, 10 mg/kg, 10 mg/kg SC, 2 h, mean, read-out: Concentration Mean
  concentration at 2 h: 32400 ng/mL
[2]; male, Sprague-Dawley, rat, plasma, sc, 10 mg/kg, 10 mg/kg SC, 4 h, individual rats, read-out: Concentration (ng/ml) Rat 1-3
  concentration at 4 h: 25700 ng/mL
[2]; male, Sprague-Dawley, rat, plasma, sc, 10 mg/kg, 10 mg/kg SC, 4 h, mean, read-out: Concentration Mean
  concentration at 4 h: 26900 ng/mL
[2]; male, Sprague-Dawley, rat, plasma, sc, 10 mg/kg, 10 mg/kg SC, 8 h, individual rats, read-out: Concentration (ng/ml) Rat 1-3
  concentration at 8 h: 22700 ng/mL
[2]; male, Sprague-Dawley, rat, plasma, sc, 10 mg/kg, 10 mg/kg SC, 8 h, mean, read-out: Concentration Mean
  concentration at 8 h: 23600 ng/mL
[2]; male, Sprague-Dawley, rat, plasma, sc, 10 mg/kg, 10 mg/kg SC, 24 h, individual rats, read-out: Concentration (ng/ml) Rat 1-3
  concentration at 24 h: 10300 ng/mL
[2]; male, Sprague-Dawley, rat, plasma, sc, 10 mg/kg, 10 mg/kg SC, 24 h, mean, read-out: Concentration Mean
  concentration at 24 h: 12300 ng/mL
[2]; male, Sprague-Dawley, rat, plasma, sc, 10 mg/kg, 10 mg/kg SC, 48 h, individual rats, read-out: Concentration (ng/ml) Rat 1-3
  concentration at 48 h: 4080 ng/mL
[2]; male, Sprague-Dawley, rat, plasma, sc, 10 mg/kg, 10 mg/kg SC, 48 h, mean, read-out: Concentration Mean
  concentration at 48 h: 5770 ng/mL
[2]; male, Sprague-Dawley, rat, plasma, sc, 10 mg/kg, 10 mg/kg SC, 72 h, mean
  concentration at 72 h: 2830 ng/mL
